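Cultured in 96-well plates, cells were exposed to test compound for 48 hours across five concentrations. GI50 = concentration required for 50% inhibition of growth. TGI is the concentration that stops growth completely.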
Legend:
Assay in all cases: NCI anticancer screen, dose series, 48 h
[1] = test system: A549 NSCLC
[2] = test system: HL-60(TB) leukemia
[3] = test system: K-562 leukemia
[4] = test system: KM12 colon
[5] = test system: NCI-H23 lung
[6] = test system: RXF 393 renal
[7] = test system: SK-MEL-5 melanoma
[8] = test system: UACC-62 melanoma
[9] = test system: SR leukemia
[10] = test system: TK-10 renal

Compound `Nc1ncnc2c1ncn2C1CCC(CO)O1` (stereo not drawn) has a TGI [1] greater than 100 µM, a TGI [2] greater than 100 µM and a TGI [3] greater than 100 µM. For the same compound, the TGI [4] was greater than 100 µM, the TGI [5] was greater than 71.5 µM and the TGI [6] was greater than 100 µM. It also gave a TGI [7] greater than 100 µM and a TGI [8] greater than 100 µM.
In the case of `CCN(CC)CCCC(Nc1c2ccc(Cl)cc2nc2ccc(OC)cc12)c1ccc(F)cc1` (stereo not drawn), the GI50 [1] is reported as 2.44 µM, the TGI [1] is reported as 5.99 µM and the GI50 [2] is reported as 1.91 µM. The TGI [2] was 4.02 µM, the GI50 [3] was 2.18 µM and the TGI [3] was 4.26 µM. The GI50 [4] was 2 µM, the TGI [4] was 3.67 µM and the GI50 [5] was 2.56 µM. The TGI [5] was 7.9 µM, the GI50 [6] was 1.51 µM and the TGI [6] was 3.13 µM. It also gave a GI50 [7] of 1.7 µM, a TGI [7] of 3.15 µM and a GI50 [9] of 2.19 µM. For the same compound, the TGI [9] was 5.88 µM, the GI50 [10] was 1.81 µM and the TGI [10] was 3.58 µM. For the same compound, the GI50 [8] was 1.71 µM and the TGI [8] was 3.25 µM.
For `Cc1cccc2c(N)c3cccc(C(=O)NCCN(C)C)c3nc12`, the TGI [1] was 3.5 µM, the TGI [2] was 0.0427 µM and the TGI [3] was 0.543 µM. The TGI [4] was 0.856 µM, the TGI [5] was 1.16 µM and the TGI [6] was 0.479 µM. The TGI [7] was 0.269 µM, the TGI [9] was 0.0347 µM and the TGI [10] was greater than 30 µM. It also gave a TGI [8] of 0.227 µM.
In the case of `COc1c2c(cc3c(CCc4ccccc4)cc(=O)oc13)CCC(C)(C)O2`, the TGI [2] is reported as greater than 100 µM, the TGI [3] is reported as greater than 100 µM and the TGI [4] is reported as greater than 100 µM. The TGI [5] was greater than 100 µM, the TGI [6] was greater than 100 µM and the TGI [7] was greater than 100 µM. For the same compound, the TGI [9] was greater than 100 µM, the TGI [10] was greater than 100 µM and the TGI [8] was greater than 100 µM.
Compound `CC1=C[C@]2(CC(C)C3C(CC4(C)C5CCC6C(C)(C)C(=O)CC[C@@]67C[C@@]57CC[C@]34C)O2)OC1=O` (stereo partly drawn) has a TGI [1] greater than 100 µM, a TGI [2] greater than 100 µM and a TGI [3] greater than 100 µM. It also gave a TGI [4] greater than 100 µM, a TGI [5] greater than 100 µM and a TGI [6] of 21.8 µM. The TGI [7] was 20.2 µM, the TGI [9] was greater than 100 µM and the TGI [10] was 79 µM.
Work on `CCOP(=O)(OCC)C(Cc1ccc(OC)c(OC)c1)N=C(c1ccccc1)c1ccccc1` (stereo not drawn) yielded a TGI [1] greater than 100 µM, a TGI [2] of 51.9 µM and a TGI [3] of 22.4 µM. It also gave a TGI [4] greater than 100 µM, a TGI [5] greater than 100 µM and a TGI [6] greater than 100 µM. It also gave a TGI [7] of 55.9 µM, a TGI [9] of 46.4 µM and a TGI [10] greater than 100 µM. It also gave a TGI [8] greater than 100 µM.
In the case of `CC(C)=CC(=O)OC1C2C(C)C(=O)OC2C(O)C(C)C2C=CC(=O)C21C` (stereo not drawn), the TGI [1] is reported as 33.6 µM, the TGI [2] is reported as 3.4 µM and the TGI [3] is reported as 25.3 µM. For the same compound, the TGI [4] was 9.31 µM, the TGI [5] was 7.59 µM and the TGI [6] was 3.68 µM. It also gave a TGI [7] of 9.14 µM and a TGI [8] of 4.64 µM.
`CO/N=C1/c2sccc2[C@H](NC(=O)C(F)(F)F)[C@@H]1O` gave a TGI [1] greater than 100 µM, a TGI [2] greater than 100 µM and a TGI [3] greater than 100 µM. It also gave a TGI [5] greater than 100 µM, a TGI [6] greater than 100 µM and a TGI [7] greater than 100 µM. For the same compound, the TGI [9] was greater than 100 µM, the TGI [10] was greater than 100 µM and the TGI [8] was greater than 100 µM.

— PubChem BioAssay (NCI)
